# Source: patent publication US20260325533A1, “CDK INHIBITOR COMPOUNDS” (ALEKSIA THERAPEUTICS, INC., priority 2023, published 2026)
# Read-outs that look alike come from different tables or passages of the source.
# Legend:
# Format in all cases: biochemical
# [1] = molecular target: CDK2/CCNE1 (Homo sapiens, UniProt P24941); experiment: CDK2 homogeneous time-resolved fluorescence (HTRF) kinase assay; settings: CDK2/CCNE
# Outline: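 TR-FRET read-out (665 nm, or 665/615 ratio) of Eu-antibody detection of phospho-4E-BP1 (Thr37/46) ULight peptide. Enzyme 3 nM, ATP 1 mM, peptide 50 nM, 1% DMSO; 60 min reaction at 23 °C after 20 min compound preincubation. IC50 from 11-point half-log titrations, top typically 10 μM.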
# [2] = molecular target: CDK1/CCNB1 (Homo sapiens, UniProt P06493); experiment: CDK1 homogeneous time-resolved fluorescence (HTRF) kinase assay; settings: CDK1/CCNB; x = IC50 >250 nM; read-out: CDK1/CCNB IC50 (>250 nM column)
# Outline: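 0.5 nM CDK1/CCNB1 was preincubated 20 min at 23 °C with compound in HEPES pH-unspecified buffer (MgCl2, EGTA, DTT, Tween 20), then reacted 60 min with 1 mM ATP and 50 nM ULight-4E-BP1 (Thr37/46) peptide. EDTA-stopped reactions were detected with 2 nM Eu-anti-phospho antibody; IC50 from 11-point half-log titrations.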
# [3] = molecular target: CDK4/CCND3 (Homo sapiens, UniProt P11802); experiment: CDK4 homogeneous time-resolved fluorescence (HTRF) kinase assay; settings: CDK4/CCND; x = IC50 >250 nM; read-out: CDK4/CCND IC50 (>250 nM column)
# Outline: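 IC50s derive from Lance 665 nm or 665/615 nm signals in 11-point, half-log dose series (top 10 μM, 1% DMSO). The enzyme, 1.5 nM CDK4/CCND3, phosphorylates 50 nM ULight-4E-BP1 peptide with 1 mM ATP over 60 min at 23 °C.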
# [4] = molecular target: CDK6/CCND1 (Homo sapiens, UniProt Q00534); experiment: CDK6 homogeneous time-resolved fluorescence (HTRF) kinase assay; settings: CDK6/CCND; x = IC50 >250 nM; read-out: CDK6/CCND IC50 (>250 nM column)
# Outline: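 Assay conditions: HEPES buffer containing 10 mM MgCl2, 1 mM EGTA, 2 mM DTT, 0.01% Tween 20; 1 nM CDK6/CCND1, 50 nM peptide substrate, 1 mM ATP. Detection after 60 min reaction used 2 nM europium antibody with 340 nm excitation. Potency fitted from half-log series, 11 points.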
# [5] = x = IC50 >250 nM, read-out: CDK2/CCNE IC50 (>250 nM column)
# [6] = x = IC50 25-250 nM, read-out: CDK2/CCNE IC50 (25-250 nM)
# Sequence of CDK4/CCND3 (P11802 whole entry): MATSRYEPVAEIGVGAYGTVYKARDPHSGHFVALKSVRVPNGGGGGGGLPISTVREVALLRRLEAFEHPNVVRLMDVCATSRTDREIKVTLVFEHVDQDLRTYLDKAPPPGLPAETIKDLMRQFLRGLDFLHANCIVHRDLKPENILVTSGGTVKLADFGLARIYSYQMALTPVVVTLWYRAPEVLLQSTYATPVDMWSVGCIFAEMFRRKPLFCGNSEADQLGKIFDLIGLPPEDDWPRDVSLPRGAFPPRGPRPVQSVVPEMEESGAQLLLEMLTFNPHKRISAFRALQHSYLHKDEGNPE
# Sequence of CDK4/CCND3 (P30281 whole entry partner): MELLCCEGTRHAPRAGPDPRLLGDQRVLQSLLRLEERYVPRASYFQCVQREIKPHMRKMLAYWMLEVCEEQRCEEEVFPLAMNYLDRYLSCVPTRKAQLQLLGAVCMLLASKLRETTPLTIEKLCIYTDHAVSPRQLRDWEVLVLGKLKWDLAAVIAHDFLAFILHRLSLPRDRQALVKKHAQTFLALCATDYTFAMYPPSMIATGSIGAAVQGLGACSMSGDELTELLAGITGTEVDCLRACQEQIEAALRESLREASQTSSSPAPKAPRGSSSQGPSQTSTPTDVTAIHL
# Sequence of CDK6/CCND1 (Q00534 whole entry): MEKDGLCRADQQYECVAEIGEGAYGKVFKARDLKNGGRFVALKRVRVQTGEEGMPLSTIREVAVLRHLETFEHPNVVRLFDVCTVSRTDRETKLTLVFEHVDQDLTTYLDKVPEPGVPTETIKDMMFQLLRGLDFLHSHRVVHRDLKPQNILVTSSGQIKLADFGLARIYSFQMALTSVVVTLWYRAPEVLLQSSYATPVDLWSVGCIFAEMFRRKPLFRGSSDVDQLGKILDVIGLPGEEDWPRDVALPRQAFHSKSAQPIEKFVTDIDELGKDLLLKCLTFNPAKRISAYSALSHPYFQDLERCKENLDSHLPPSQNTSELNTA
# Sequence of CDK6/CCND1 (P24385 whole entry partner): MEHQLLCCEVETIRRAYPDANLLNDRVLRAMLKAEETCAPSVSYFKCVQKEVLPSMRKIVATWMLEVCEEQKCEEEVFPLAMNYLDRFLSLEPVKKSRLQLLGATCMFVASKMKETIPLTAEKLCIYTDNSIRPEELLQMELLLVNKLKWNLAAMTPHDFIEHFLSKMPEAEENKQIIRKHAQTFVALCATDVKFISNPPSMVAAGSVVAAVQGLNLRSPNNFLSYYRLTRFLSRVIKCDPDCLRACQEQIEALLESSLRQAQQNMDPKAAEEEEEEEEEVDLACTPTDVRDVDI
# Sequence of CDK1/CCNB1 (P06493 whole entry): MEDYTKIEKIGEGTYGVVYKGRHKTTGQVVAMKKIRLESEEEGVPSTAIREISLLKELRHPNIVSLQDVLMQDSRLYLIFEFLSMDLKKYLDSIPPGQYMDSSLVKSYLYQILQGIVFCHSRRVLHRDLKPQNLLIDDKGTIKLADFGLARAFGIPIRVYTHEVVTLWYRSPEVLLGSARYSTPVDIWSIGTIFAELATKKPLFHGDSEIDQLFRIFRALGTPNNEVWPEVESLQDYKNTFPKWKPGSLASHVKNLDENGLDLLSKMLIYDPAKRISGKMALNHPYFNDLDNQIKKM
# Sequence of CDK1/CCNB1 (P14635 whole entry partner): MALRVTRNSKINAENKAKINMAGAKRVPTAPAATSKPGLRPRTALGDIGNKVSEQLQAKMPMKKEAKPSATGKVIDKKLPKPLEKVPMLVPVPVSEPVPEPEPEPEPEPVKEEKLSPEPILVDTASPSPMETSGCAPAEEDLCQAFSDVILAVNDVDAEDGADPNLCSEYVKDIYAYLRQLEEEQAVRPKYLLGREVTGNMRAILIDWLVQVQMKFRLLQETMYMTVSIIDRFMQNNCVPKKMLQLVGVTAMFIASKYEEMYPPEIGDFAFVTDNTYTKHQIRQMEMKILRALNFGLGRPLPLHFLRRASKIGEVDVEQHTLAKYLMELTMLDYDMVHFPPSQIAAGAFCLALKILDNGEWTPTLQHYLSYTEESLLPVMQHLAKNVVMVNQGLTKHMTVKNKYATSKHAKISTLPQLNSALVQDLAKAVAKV
"IC50 [1, 5] [µM]",IC50 [2] [µM],IC50 [3] [µM],IC50 [4] [µM],"IC50 [1, 6] [µM]","IC50 ([1]; x = IC50 <25 nM, read-out: CDK2/CCNE IC50 (<25 nM)) [µM]",SMILES
> 0.25,> 0.25,> 0.25,> 0.25,–,–,"CS(=O)(=O)c1ccc(Nc2cc3c(C#Cc4nccc5[nH]ccc45)nccc3cn2)cc1 [Ex 516, 5-((1H-pyrrolo[3,2-c]pyridin-4-yl)ethynyl)-N-(4-(methylsulfonyl)phenyl)-2,6-naphthyridin-3-amine]"
–,> 0.25,> 0.25,> 0.25,0.025 to 0.25,–,"CS(=O)(=O)c1ccc(Nc2cc3c(C#Cc4ccc(C5CC5)nc4)nccc3cn2)cc1 [Ex 517, 5-((6-cyclopropylpyridin-3-yl)ethynyl)-N-(4-(methylsulfonyl)phenyl)-2,6-naphthyridin-3-amine]"
–,> 0.25,> 0.25,> 0.25,–,< 0.025,"CS(=O)(=O)c1ccc(Nc2cc3c(C#Cc4ccc5oc(=O)[nH]c5c4)nccc3cn2)cc1 [Ex 518, 5-((7-((4-(methylsulfonyl)phenyl)amino)-2,6-naphthyridin-1-yl)ethynyl)benzo[d]oxazol-2(3H)-one]"
> 0.25,> 0.25,> 0.25,> 0.25,–,–,"CS(=O)(=O)c1ccc(Nc2cc3c(C#Cc4cnc(C#N)nc4)nccc3cn2)cc1 [Ex 523, 5-((7-((4-(methylsulfonyl)phenyl)amino)-2,6-naphthyridin-1-yl)ethynyl)pyrimidine-2-carbonitrile]"
–,> 0.25,> 0.25,> 0.25,0.025 to 0.25,–,"COc1ccnc(C#Cc2nccc3cnc(Nc4ccc(S(C)(=O)=O)cc4)cc23)c1N [Ex 525, 5-((3-amino-4-methoxypyridin-2-yl)ethynyl)-N-(4-(methylsulfonyl)phenyl)-2,6-naphthyridin-3-amine]"
–,> 0.25,> 0.25,> 0.25,0.025 to 0.25,–,"CS(=O)(=O)c1ccc(Nc2cc3c(C#Cc4ccnc(C(F)F)c4)nccc3cn2)cc1 [Ex 529, 5-((2-(difluoromethyl)pyridin-4-yl)ethynyl)-N-(4-(methylsulfonyl)phenyl)-2,6-naphthyridin-3-amine]"

# Second part, the compound before the results:
SMILES,"IC50 [1, 5] [µM]",IC50 [2] [µM],IC50 [3] [µM],IC50 [4] [µM],"IC50 [1, 6] [µM]","IC50 ([1]; x = IC50 <25 nM, read-out: CDK2/CCNE IC50 (<25 nM)) [µM]"
"CS(=O)(=O)c1ccc(Nc2cc3c(C#Cc4c[nH]c5nc(Cl)ncc45)nccc3cn2)cc1 [Ex 520, 5-((2-chloro-7H-pyrrolo[2,3-d]pyrimidin-5-yl)ethynyl)-N-(4-(methylsulfonyl)phenyl)-2,6-naphthyridin-3-amine]",–,> 0.25,> 0.25,> 0.25,0.025 to 0.25,–
"COC(=O)c1ccc(C#Cc2nccc3cnc(Nc4ccc(S(C)(=O)=O)cc4)cc23)cn1 [Ex 521, methyl 5-((7-((4-(methylsulfonyl)phenyl)amino)-2,6-naphthyridin-1-yl)ethynyl)picolinate]",–,> 0.25,> 0.25,> 0.25,0.025 to 0.25,–
"CS(=O)(=O)c1ccc(Nc2cc3c(C#Cc4c[nH]c5ncccc45)nccc3cn2)cc1 [Ex 522, 5-((1H-pyrrolo[2,3-b]pyridin-3-yl)ethynyl)-N-(4-(methylsulfonyl)phenyl)-2,6-naphthyridin-3-amine]",–,> 0.25,> 0.25,> 0.25,0.025 to 0.25,–
"COc1ccc(C#Cc2nccc3cnc(Nc4ccc(S(C)(=O)=O)cc4)cc23)c(C)c1 [Ex 527, 5-((4-methoxy-2-methylphenyl)ethynyl)-N-(4-(methylsulfonyl)phenyl)-2,6-naphthyridin-3-amine]",–,> 0.25,> 0.25,> 0.25,0.025 to 0.25,–
"CS(=O)(=O)c1ccc(Nc2cc3c(C#Cc4ccc(=O)n(C(F)F)c4)nccc3cn2)cc1 [Ex 528, 1-(difluoromethyl)-5-((7-((4-(methylsulfonyl)phenyl)amino)-2,6-naphthyridin-1-yl)ethynyl)pyridin-2(1H)-one]",–,> 0.25,> 0.25,> 0.25,0.025 to 0.25,–
